The results in this text go back to US20120202801A1, “METHODS FOR TREATING BREAST CANCER” (priority 2009, published 2012).

A value given as a limit tells only on which side of the number the result lay.

This assay relates to hypoxia-inducible endogenous VEGF expression. Kind of assay: Hypoxia-inducible endogenous VEGF expression ELISA in HeLa cells, dose-response (EC50, Table 3). As to conditions: Homo sapiens, read-out: ELISA EC50 μM. In general terms: In an ELISA, binding on a coated surface is turned into a signal by an enzyme label.
Take `O=C(Oc1ccc(Cl)cc1)N1CCc2c([nH]c3ccc(Cl)cc23)C1c1ccc(OCC(O)CN2CCN(CCO)CC2)cc1` (stereo not shown) [Compound 960]: the EC50 (as a rule, the concentration giving half of the maximal effect) lay within 0.008 to 0.04 µM.
Turning to `O=C(Oc1ccc(Cl)cc1)N1CCc2c([nH]c3ccc(Cl)cc23)C1c1ccc(OCCCCCCN2CCOCC2)cc1` (stereo not shown) [Compound 786], the EC50 is < 0.008 µM.
For `COCCN(C)CC(O)COc1ccc(C2c3[nH]c4ccc(Cl)cc4c3CCN2C(=O)Oc2ccc(Cl)cc2)cc1` (stereo not shown) [Compound 964], the half-maximal effective concentration (EC50) fell in the range of 0.008 to 0.04 µM.
For `O=C(Oc1ccc(Cl)cc1)N1CCc2c([nH]c3ccc(Cl)cc23)C1c1ccc(OCCCCCCN2CCCC2)cc1` (stereo not shown) [Compound 783] the value was < 0.008 µM; for `CN1CCCC(COc2ccc(C3c4[nH]c5ccc(Cl)cc5c4CCN3C(=O)Oc3ccc(Cl)cc3)cc2)C1` (stereo not shown) [Compound 966], 0.008 to 0.04 µM; for `O=C(Oc1ccc(F)cc1)N1CCc2c([nH]c3ccc(Cl)cc23)C1c1ccc(OCCCN2CCSCC2)cc1` (stereo not shown) [Compound 991], 0.04 to 0.2 µM.
On to `O=C(Oc1ccc(Cl)cc1)N1CCc2c([nH]c3ccc(Cl)cc23)C1c1ccc(OCCCCN2CCCC2)cc1` (stereo not shown) [Compound 698], for which the EC50 lay within 0.008 to 0.04 µM.
As for `CC(C)NCCCCOc1ccc(C2c3[nH]c4ccc(Cl)cc4c3CCN2C(=O)Oc2ccc(Cl)cc2)cc1` (stereo not shown) [Compound 700], the half-maximal effective concentration (EC50) lay in the range of 0.008 to 0.04 µM.
For `COCCN(CCCOc1ccc(C2c3[nH]c4ccc(Cl)cc4c3CCN2C(=O)Oc2ccc(Cl)cc2)cc1)CCOC` (stereo not shown) [Compound 916] the value was < 0.008 µM; for `O=C(Oc1ccc(Cl)cc1)N1CCc2c([nH]c3ccc(Cl)cc23)C1c1ccc(OCCCN2CCSCC2)cc1` (stereo not shown) [Compound 933], < 0.008 µM; for `COCCN(C)CCCOc1ccc(C2c3[nH]c4ccc(Cl)cc4c3CCN2C(=O)Oc2ccc(Cl)cc2)cc1` (stereo not shown) [Compound 908], < 0.008 µM.
With `O=C(Oc1ccc(Cl)cc1)N1CCc2c([nH]c3ccc(Cl)cc23)C1c1ccc(OCCCN2CCCCC2)cc1` (stereo not shown) [Compound 433], the 50% effective concentration (EC50) is < 0.008 µM.
For the compound `O=C(Oc1ccc(F)cc1)N1CCc2c([nH]c3ccc(Cl)cc23)C1c1ccc(OCCCCNCCO)cc1` (stereo not shown) [Compound 735], the 50% effective concentration (EC50) was < 0.008 µM.
Consider `CN1CCN(CCCOc2ccc(C3c4[nH]c5ccc(Cl)cc5c4CCN3C(=O)Oc3ccc(F)cc3)cc2)CC1` (stereo not shown) [Compound 993], for which the EC50 is < 0.008 µM.
`CN1CCN(CCCCOc2ccc(C3c4[nH]c5ccc(Cl)cc5c4CCN3C(=O)Oc3ccc(F)cc3)cc2)CC1` (stereo not shown) [Compound 740]: the half-maximal effective concentration (EC50) was in the range of 0.04 to 0.2 µM.
For `COCCCNCCCCCCOc1ccc(C2c3[nH]c4ccc(Cl)cc4c3CCN2C(=O)Oc2ccc(Cl)cc2)cc1` (stereo not shown) [Compound 785], the EC50 was < 0.008 µM.
Consider `O=C(Oc1ccc(Cl)cc1)N1CCc2c([nH]c3ccc(Cl)cc23)C1c1ccc(OCC(O)CN2CCCC2)cc1` (stereo not shown) [Compound 462], for which the half-maximal effective concentration (EC50) fell in the range of 0.008 to 0.04 µM.
For `O=C(Oc1ccc(Cl)cc1)Oc1ccc(C2c3[nH]c4ccc(Cl)cc4c3CCN2C(=O)Oc2ccc(Cl)cc2)cc1` (stereo not shown) [Compound 578] the value was 0.04 to 0.2 µM.
Then `O=C(Oc1ccc(Cl)cc1)N1CCc2c([nH]c3ccc(Cl)cc23)C1c1ccc(OCCCCNCCO)cc1` (stereo not shown) [Compound 699], with 0.008 to 0.04 µM; and `CNCC(O)COc1ccc(C2c3[nH]c4ccc(Cl)cc4c3CCN2C(=O)Oc2ccc(Cl)cc2)cc1` (stereo not shown) [Compound 850], with 0.04 to 0.2 µM.
Then `O=C(Oc1ccc(F)cc1)N1CCc2c([nH]c3ccc(Cl)cc23)C1c1ccc(OCCCCN2CCOCC2)cc1` (stereo not shown) [Compound 738], with < 0.008 µM; and `CC(C)NCCCCCCOc1ccc(C2c3[nH]c4ccc(Cl)cc4c3CCN2C(=O)Oc2ccc(F)cc2)cc1` (stereo not shown) [Compound 774], with 0.008 to 0.04 µM.
